{
  "source": "patent US20220409643A1",
  "about": "“ROR Gamma T Inhibitors and Topical Uses Thereof” (Dermira, inc., priority 2019, published 2022)",
  "data": [
    {"system": "IL17A", "experiment": "skin Resident Immune Cell Assay (sRICA), Th17 model, IL17A protein in media", "assay_type": "cell-based", "details": "100 uM solution in 1% DMSO/OD applied topically to human skin; media collected 24 hours after Th17 activation", "experimental": "(§1) A skin Resident Immune Cell Assay (sRICA) was used to test compounds for reduction of IL-17A protein upregulation in the Th17 sRICA model. In this model, human surgical skin waste was cultured in a transwell system, with the dermis in contact with cell culture media and the stratum corneum exposed to air. To perform the assay, each human skin sample was defatted and dermatomed to 750μm. Next, 8 mm punch biopsies were obtained and placed in a membrane transwell. The transwells were inserted into culture wells with complete media, and a cocktail of cytokines and antibodies were added to promote skin resident immune cell polarization.\n(§2) RORγt inhibitors were prepared as a 100 uM solution in 1% DMSO/OD. […] of the prepared topical solution was applied to sRICA wells prepared for topical drug evaluation. Drugs were allowed to penetrate the skin overnight, for up to 24 hours prior to Th17 activation. Media was collected 24 hours after Th17 activation for IL17A protein assessment. IL17A protein was evaluated using the Quanterix IL17A detection kit on the SiMoA platform (via CRO Translational Biosciences). There was significant upregulation of IL17A with Th17 activation. Each study was normalized to the % max of IL17A production (i.e. the average IL17A concentration of Th17 activated skin alone) was set to 100%, all other values (untreated no activation and treated samples) were obtained as a percentage of this. […]", "units": {"inhibition at 100 µM": "%"}, "values": [
      {"smiles": "COc1ccc2c(n1)CCN(C(=O)c1cc(O)no1)[C@H]2C(=O)Nc1cc(F)c2c(c1)CCC2(C)C", "note": "[(5R)-N-(7-fluoro-1,1-dimethyl-2,3-dihydro-1H-inden-5-yl)-6-((3-hydroxy-1,2-oxazol-5-yl)carbonyl)-2-methoxy-5,6,7,8-tetrahydro-1,6-naphthyridine-5-carboxamide]", "inhibition at 100 µM": 46.9},
      {"smiles": "COc1ccc2c(c1)CCN(C(=O)c1cc(O)no1)[C@H]2C(=O)Nc1cc(F)c2c(c1)CCC2(C)C", "note": "(stereo in doubt) [N-(7-fluoro-1,1-dimethyl-2,3-dihydro-1H-inden-5-yl)-2-((3-hydroxy-1,2-oxazol-5-yl)carbonyl)-6-methoxy-1,2,3,4-tetrahydroisoquinoline-1-carboxamide]", "inhibition at 100 µM": 42.3},
      {"smiles": "COc1ccc2c(n1)CCN(C(=O)Cc1cc(O)no1)[C@H]2C(=O)Nc1ccc(C(C)(C)C)c(F)c1", "note": "[(5R)-N-(4-tert-butyl-3-fluorophenyl)-6-((3-hydroxy-1,2-oxazol-5-yl)acetyl)-2-methoxy-5,6,7,8-tetrahydro-1,6-naphthyridine-5-carboxamide]", "inhibition at 100 µM": 69.5},
      {"smiles": "COCc1ccc([C@@H](NC(=O)[C@@H]2CNC(=O)C2)C(=O)Nc2ccc(C(C)(C)C)c(F)c2)cc1", "note": "[(3S)-N-((1R)-2-((4-tert-butyl-3-fluorophenyl)amino)-1-(4-(methoxymethyl)phenyl)-2-oxoethyl)-5-oxopyrrolidine-3-carboxamide]", "inhibition at 100 µM": 38.7},
      {"smiles": "COCc1ccc([C@@H](NC(=O)[C@H]2CNC(=O)C2)C(=O)Nc2cc(F)c(C(C)(C)C)c(F)c2)cc1", "note": "[(3R)-N-((1R)-2-((4-tert-butyl-3,5-difluorophenyl)amino)-1-(4-(methoxymethyl)phenyl)-2-oxoethyl)-5-oxopyrrolidine-3-carboxamide]", "inhibition at 100 µM": 63.1},
      {"smiles": "COCc1ccc([C@@H](NC(=O)Cc2nnc(C)o2)C(=O)Nc2ccc(C(C)(C)C)c(F)c2)cc1", "note": "[(2R)-N-(4-tert-butyl-3-fluorophenyl)-2-(4-(methoxymethyl)phenyl)-2-(((5-methyl-1,3,4-oxadiazol-2-yl)acetyl)amino)acetamide]", "inhibition at 100 µM": 62},
      {"smiles": "COc1ccc2c(n1)CCN(C(=O)Cc1cc(O)no1)[C@H]2C(=O)Nc1cc(F)c2c(c1)CCC2(C)C", "note": "[(5R)-N-(7-fluoro-1,1-dimethyl-2,3-dihydro-1H-inden-5-yl)-6-((3-hydroxy-1,2-oxazol-5-yl)acetyl)-2-methoxy-5,6,7,8-tetrahydro-1,6-naphthyridine-5-carboxamide]", "inhibition at 100 µM": 19.2},
      {"smiles": "CC(C)(C)c1ccc(NC(=O)[C@H](NC(=O)C(O)C(F)(F)F)C2CCOCC2)cc1Cl", "note": "(stereo partly drawn) [N-((1R)-2-((4-tert-butyl-3-chlorophenyl)amino)-2-oxo-1-(tetrahydro-2H-pyran-4-yl)ethyl)-3,3,3-trifluoro-2-hydroxypropanamide]", "inhibition at 100 µM": 71.3}
    ]},
    {"system": "IL17A", "experiment": "skin Resident Immune Cell Assay (sRICA), Th17 model, IL17A protein in media", "assay_type": "cell-based", "details": "Homo sapiens, 24 h, 100 uM solution in 1% DMSO/OD applied topically to human skin; media collected 24 hours after Th17 activation", "experimental": "as §1, §2", "units": {"inhibition at 100 µM": "%"}, "values": [
      {"smiles": "COCc1ccc2c(c1)CCN(C(=O)CCCC(=O)O)[C@H]2C(=O)Nc1cc(F)c([Si](C)(C)C)c(F)c1", "note": "[5-((1R)-1-((3,5-difluoro-4-(trimethylsilyl)phenyl)carbamoyl)-6-methoxymethyl-3,4-dihydroisoquinolin-2(1H)-yl)-5-oxopentanoic acid]", "inhibition at 100 µM": 77.4},
      {"smiles": "COc1ccc([C@@H](NC(=O)N2CC[C@@H](O)C2)C(=O)Nc2ccc([Si](C)(C)C)c(F)c2)cc1", "note": "[(3R)-N-((1R)-2-((3-fluoro-4-(trimethylsilyl)phenyl)amino)-1-(4-methoxyphenyl)-2-oxoethyl)-3-hydroxypyrrolidine-1-carboxamide]", "inhibition at 100 µM": 46.9},
      {"smiles": "CCn1c2ccccc2c2cc(C(=O)NCC(C)CC(=O)Nc3ccc(C#N)c(Cl)c3)ccc21", "note": "(stereo not shown) [N-{4-[(3-chloro-4-cyanophenyl)amino]-2-methyl-4-oxobutyl}-9-ethyl-9H-carbazole-3-carboxamide]", "inhibition at 100 µM": 24.5},
      {"smiles": "COCc1ccc2c(n1)CCN(C(=O)Cc1cc(O)no1)[C@H]2C(=O)Nc1cc(F)c([Si](C)(C)C)c(F)c1", "note": "[(5R)-N-(3,5-difluoro-4-(trimethylsilyl)phenyl)-6-((3-hydroxy-1,2-oxazol-5-yl)acetyl)-2-(methoxymethyl)-5,6,7,8-tetrahydro-1,6-naphthyridine-5-carboxamide]", "inhibition at 100 µM": 60.1},
      {"smiles": "COc1ccc([C@@H](NC(=O)c2cc(O)no2)C(=O)Nc2ccc([Si](C)(C)C)c(F)c2)cc1", "inhibition at 100 µM": 55.3},
      {"smiles": "COCc1ccc([C@@H](NC(=O)[C@H]2CNC(=O)C2)C(=O)Nc2cc(F)c([Si](C)(C)C)c(F)c2)cc1", "note": "[(3R)-N-((1R)-2-((3,5-difluoro-4-(trimethylsilyl)phenyl)amino)-1-(4-(methoxymethyl)phenyl)-2-oxoethyl)-5-oxopyrrolidine-3-carboxamide]", "inhibition at 100 µM": 63},
      {"smiles": "COc1ccc2c(c1)CCN(C(=O)Cc1cc(O)no1)[C@H]2C(=O)Nc1cc(F)c([Si](C)(C)C)c(F)c1", "note": "[(1R)-N-(3,5-difluoro-4-(trimethylsilyl)phenyl)-2-((3-hydroxy-1,2-oxazol-5-yl)acetyl)-6-methoxy-1,2,3,4-tetrahydroisoquinoline-1-carboxamide]", "inhibition at 100 µM": 49.2},
      {"smiles": "COCc1ccc2c(c1)CCN(C(=O)CCCC(=O)O)[C@H]2C(=O)Nc1ccc([Si](C)(C)C)c(F)c1", "note": "[5-((1R)-1-((3-fluoro-4-(trimethylsilyl)phenyl)carbamoyl)-6-(methoxymethyl)-3,4-dihydroisoquinolin-2(1H)-yl)-5-oxopentanoic acid]", "inhibition at 100 µM": 51.1},
      {"smiles": "COCc1ccc([C@@H](NC(=O)N2CC(O)C2)C(=O)Nc2ccc([Si](C)(C)C)c(F)c2)cc1", "note": "[N-((1R)-2-((3-fluoro-4-(trimethylsilyl)phenyl)amino)-1-(4-(methoxymethyl)phenyl)-2-oxoethyl)-3-hydroxyazetidine-1-carboxamide]", "inhibition at 100 µM": 54.6},
      {"smiles": "COCc1ccc2c(c1)CCN(C(=O)Cc1cc(O)no1)[C@H]2C(=O)Nc1ccc([Si](C)(C)C)c(F)c1", "note": "[(1R)-N-(3-fluoro-4-(trimethylsilyl)phenyl)-2-((3-hydroxy-1,2-oxazol-5-yl)acetyl)-6-(methoxymethyl)-1,2,3,4-tetrahydroisoquinoline-1-carboxamide]", "inhibition at 100 µM": 69.9},
      {"smiles": "CN(C(=O)c1cc(O)no1)C(C(=O)Nc1cc(F)c([Si](C)(C)C)c(F)c1)C1CCOCC1", "note": "(stereo not shown) [N-(2-((3,5-difluoro-4-(trimethylsilyl)phenyl)amino)-2-oxo-1-(tetrahydro-2H-pyran-4-yl)ethyl)-3-hydroxy-N-methyl-1,2-oxazole-5-carboxamide]", "inhibition at 100 µM": 31.7},
      {"smiles": "COCc1ccc([C@@H](NC(=O)[C@@H]2CNC(=O)C2)C(=O)Nc2cc(F)c([Si](C)(C)C)c(F)c2)cc1", "note": "[(3S)-N-((1R)-2-((3,5-difluoro-4-(trimethylsilyl)phenyl)amino)-1-(4-(methoxymethyl)phenyl)-2-oxoethyl)-5-oxopyrrolidine-3-carboxamide]", "inhibition at 100 µM": 23.6},
      {"smiles": "COCc1ccc([C@@H](NC(=O)Cn2c(=O)cc[nH]c2=O)C(=O)Nc2ccc([Si](C)(C)C)c(F)c2)cc1", "inhibition at 100 µM": 40.7},
      {"smiles": "COc1ccc2c(n1)CCN(C(=O)Cc1cc(O)no1)[C@H]2C(=O)Nc1cc(F)c([Si](C)(C)C)c(F)c1", "note": "[(5R)-N-(3,5-difluoro-4-(trimethylsilyl)phenyl)-6-((3-hydroxy-1,2-oxazol-5-yl)acetyl)-2-methoxy-5,6,7,8-tetrahydro-1,6-naphthyridine-5-carboxamide]", "inhibition at 100 µM": 49.4}
    ]}
  ]
}
